Results from patent publication US20260262643A1, “HERBICIDAL BENZOXAZINES” (FMC CORPORATION, priority 2022, published 2026).

Experiments:
[1] = tested on: wheat; experiment: Test A postemergence; assay type: in vivo, Triticum aestivum
Outline: (§1)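 Loam/sand soil; pre-em directed soil spray at planting, post-em spray at 1–2 leaf (2–10 cm). Compound in non-phytotoxic solvent + surfactant. Greenhouse 10 d; visual injury vs untreated, 0 = no effect, 100 = complete control.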

[2] = tested on: kochia; experiment: Test A postemergence; assay type: in vivo, Bassia scoparia
Outline: as §1

[3] = tested on: ryegrass, Italian; experiment: Test A preemergence; assay type: in vivo, Lolium multiflorum
Outline: as §1

[4] = tested on: galium; experiment: Test A postemergence; assay type: in vivo, Galium aparine
Outline: as §1

[5] = tested on: ducksalad; experiment: Test B flooded paddy test; assay type: in vivo, Heteranthera limosa; details: 250 g ai/ha, Flood, 13 days, 0 to 100 scale (0 no effect, 100 complete control)
Outline: (§2)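 Compound is introduced into paddy water covering soil by 3 cm, treating plants that have reached two leaves. Pots are kept flooded at that depth under greenhouse conditions. Assessment at 13 days gives a 0–100 visual control score.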

[6] = tested on: blackgrass; experiment: Test A postemergence; assay type: in vivo, Alopecurus myosuroides
Outline: as §1

[7] = tested on: horseweed; experiment: Test A postemergence; assay type: in vivo, Erigeron canadensis
Outline: as §1

[8] = tested on: corn; experiment: Test A preemergence; assay type: in vivo, Zea mays
Outline: as §1

[9] = tested on: oat, wild; experiment: Test A postemergence; assay type: in vivo, Avena fatua
Outline: as §1

[10] = tested on: foxtail, giant; experiment: Test A preemergence; assay type: in vivo, Setaria faberi
Outline: as §1

[11] = tested on: oat, wild; experiment: Test A preemergence; assay type: in vivo, Avena fatua
Outline: as §1

[12] = tested on: corn; experiment: Test A postemergence; assay type: in vivo, Zea mays
Outline: as §1

[13] = tested on: pigweed, palmer; experiment: Test A preemergence; assay type: in vivo, Amaranthus palmeri
Outline: as §1

[14] = tested on: blackgrass; experiment: Test A preemergence; assay type: in vivo, Alopecurus myosuroides
Outline: as §1

[15] = tested on: soybean; experiment: Test A preemergence; assay type: in vivo, Glycine max
Outline: as §1

[16] = tested on: pigweed, palmer; experiment: Test A postemergence; assay type: in vivo, Amaranthus palmeri
Outline: as §1

[17] = tested on: wheat; experiment: Test A preemergence; assay type: in vivo, Triticum aestivum
Outline: as §1

[18] = tested on: barnyardgrass; experiment: Test B flooded paddy test; assay type: in vivo, Echinochloa crus-galli; details: 250 g ai/ha, Flood, 13 days, 0 to 100 scale (0 no effect, 100 complete control)
Outline: as §2

[19] = tested on: goosegrass; experiment: Test A preemergence; assay type: in vivo, Eleusine indica
Outline: as §1

[20] = tested on: ryegrass, Italian; experiment: Test A postemergence; assay type: in vivo, Lolium multiflorum
Outline: as §1

[21] = tested on: soybean; experiment: Test A postemergence; assay type: in vivo, Glycine max
Outline: as §1

[22] = tested on: rice; experiment: Test B flooded paddy test; assay type: in vivo, Oryza sativa; details: 250 g ai/ha, Flood, 13 days, 0 to 100 scale (0 no effect, 100 complete control)
Outline: as §2

[23] = tested on: goosegrass; experiment: Test A postemergence; assay type: in vivo, Eleusine indica
Outline: as §1

[24] = tested on: kochia; experiment: Test A preemergence; assay type: in vivo, Bassia scoparia
Outline: as §1

[25] = tested on: foxtail, giant; experiment: Test A postemergence; assay type: in vivo, Setaria faberi
Outline: as §1

[26] = tested on: sedge, umbrella; experiment: Test B flooded paddy test; assay type: in vivo, Cyperus difformis; details: 250 g ai/ha, Flood, 13 days, 0 to 100 scale (0 no effect, 100 complete control)
Outline: as §2

[27] = tested on: ragweed; experiment: Test A preemergence; assay type: in vivo, Ambrosia artemisiifolia
Outline: as §1

[28] = tested on: ragweed; experiment: Test A postemergence; assay type: in vivo, Ambrosia artemisiifolia
Outline: as §1

[29] = 125 g ai/ha, postemergence, 10 days, visual injury, 0 to 100 scale (0 no effect, 100 complete control)
[30] = 500 g ai/ha, Postemergence, 0 to 100 scale
[31] = 125 g ai/ha, visual injury after 10 days, 0 to 100 scale, 0 is no effect, 100 is complete control
[32] = 500 g ai/ha, 0 to 100 scale (0 no effect, 100 complete control), 10 days
[33] = 125 g ai/ha, postemergence, 10 days, 0 to 100 scale, 0 no effect, 100 complete control
[34] = 500 g ai/ha, postemergence, 10 days, visual injury, 0 to 100 scale (0 no effect, 100 complete control)

In the case of `Cc1cccc2c1O[C@@H](C)CN2C(=O)c1cccc(-n2cnc(C3CC3)n2)c1` [Compound 54], the “Plant response rating, Wheat” value [1, 29] is reported as 20, the “Plant response rating, Wheat” value [1, 30] is reported as 40 and the “Plant response rating, Kochia” value [2, 29] is reported as 80. The “Plant response rating, Kochia” value [2, 30] was 90, the “Plant response rating, Ryegrass, Italian” value [3, 31] was 70 and the “Plant response rating, Ryegrass, Italian” value [3, 32] was 100. The “Plant response rating, Galium” value [4, 29] was 100, the “Plant response rating, Galium” value [4, 30] was 100 and the “Plant response rating, Ducksalad” value [5] was 30. The “Plant response rating, Blackgrass” value [6, 29] was 0, the “Plant response rating, Blackgrass” value [6, 30] was 50 and the “Plant response rating, Horseweed” value [7, 29] was 0. The “Plant response rating, Horseweed” value [7, 30] was 20, the “Plant response rating, Corn” value [8, 31] was 30 and the “Plant response rating, Corn” value [8, 32] was 60. For the same compound, the “Plant response rating, Oat, Wild” value [9, 29] was 20, the “Plant response rating, Oat, Wild” value [9, 30] was 40 and the “Plant response rating, Foxtail, Giant” value [10, 31] was 90. For the same compound, the “Plant response rating, Foxtail, Giant” value [10, 32] was 100, the “Plant response rating, Oat, Wild” value [11, 31] was 20 and the “Plant response rating, Oat, Wild” value [11, 32] was 50. For the same compound, the “Plant response rating, Corn” value [12, 29] was 30, the “Plant response rating, Corn” value [12, 30] was 40 and the “Plant response rating, Pigweed, Palmer” value [13, 31] was 60. For the same compound, the “Plant response rating, Pigweed, Palmer” value [13, 32] was 100, the “Plant response rating, Blackgrass” value [14, 31] was 40 and the “Plant response rating, Blackgrass” value [14, 32] was 80. For the same compound, the “Plant response rating, Soybean” value [15, 31] was 0, the “Plant response rating, Soybean” value [15, 32] was 40 and the “Plant response rating, Pigweed, Palmer” value [16, 29] was 50. For the same compound, the “Plant response rating, Pigweed, Palmer” value [16, 30] was 60, the “Plant response rating, Wheat” value [17, 31] was 20 and the “Plant response rating, Wheat” value [17, 32] was 30. The “Plant response rating, Barnyardgrass” value [18] was 25, the “Plant response rating, Goosegrass” value [19, 31] was 90 and the “Plant response rating, Goosegrass” value [19, 32] was 100. The “Plant response rating, Ryegrass, Italian” value [20, 29] was 30, the “Plant response rating, Ryegrass, Italian” value [20, 30] was 60 and the “Plant response rating, Soybean” value [21, 29] was 100. For the same compound, the “Plant response rating, Soybean” value [21, 30] was 100, the “Plant response rating, Rice” value [22] was 30 and the “Plant response rating, Goosegrass” value [23, 29] was 40. The “Plant response rating, Goosegrass” value [23, 30] was 50, the “Plant response rating, Kochia” value [24, 31] was 80 and the “Plant response rating, Kochia” value [24, 32] was 90. The “Plant response rating, Foxtail, Giant” value [25, 29] was 70, the “Plant response rating, Foxtail, Giant” value [25, 30] was 90 and the “Plant response rating, Sedge, Umbrella” value [26] was 90. For the same compound, the “Plant response rating, Ragweed” value [27, 31] was 0, the “Plant response rating, Ragweed” value [27, 32] was 0 and the “Plant response rating, Ragweed” value [28, 29] was 0. The “Plant response rating, Ragweed” value [28, 30] was 50.
For `Cc1ccc(-n2cnc(C(C)(C)C)n2)cc1C(=O)N1C[C@H](C)Oc2c(C)cccc21` [Compound 100], the “Wheat plant response rating” value [1, 33] was 30, the “Plant response rating, Wheat” value [1, 34] was 40 and the “Kochia plant response rating” value [2, 33] was 80. The “Plant response rating, Kochia” value [2, 34] was 90, the “Plant response rating, Ryegrass, Italian” value [3, 31] was 90 and the “Plant response rating, Ryegrass, Italian” value [3, 32] was 100. For the same compound, the “Galium plant response rating” value [4, 33] was 80, the “Plant response rating, Galium” value [4, 34] was 100 and the “Plant response rating, Ducksalad” value [5] was 40. The “Blackgrass plant response rating” value [6, 33] was 30, the “Plant response rating, Blackgrass” value [6, 34] was 90 and the “Horseweed plant response rating” value [7, 33] was 40. For the same compound, the “Plant response rating, Horseweed” value [7, 34] was 70, the “Plant response rating, Corn” value [8, 31] was 0 and the “Plant response rating, Corn” value [8, 32] was 40. For the same compound, the “Oat, Wild plant response rating” value [9, 33] was 30, the “Plant response rating, Oat, Wild” value [9, 34] was 70 and the “Plant response rating, Foxtail, Giant” value [10, 31] was 100. For the same compound, the “Plant response rating, Foxtail, Giant” value [10, 32] was 100, the “Plant response rating, Oat, Wild” value [11, 31] was 40 and the “Plant response rating, Oat, Wild” value [11, 32] was 90. The “Corn plant response rating” value [12, 33] was 70, the “Plant response rating, Corn” value [12, 34] was 70 and the “Plant response rating, Pigweed, Palmer” value [13, 31] was 100. For the same compound, the “Plant response rating, Pigweed, Palmer” value [13, 32] was 100, the “Plant response rating, Blackgrass” value [14, 31] was 60 and the “Plant response rating, Blackgrass” value [14, 32] was 70. The “Plant response rating, Soybean” value [15, 31] was 80, the “Plant response rating, Soybean” value [15, 32] was 100 and the “Pigweed, Palmer plant response rating” value [16, 33] was 70. The “Plant response rating, Pigweed, Palmer” value [16, 34] was 100, the “Plant response rating, Wheat” value [17, 31] was 50 and the “Plant response rating, Wheat” value [17, 32] was 60. For the same compound, the “Plant response rating, Barnyardgrass” value [18] was 0, the “Plant response rating, Goosegrass” value [19, 31] was 100 and the “Plant response rating, Goosegrass” value [19, 32] was 100. For the same compound, the “Ryegrass, Italian plant response rating” value [20, 33] was 50, the “Plant response rating, Ryegrass, Italian” value [20, 34] was 80 and the “Soybean plant response rating” value [21, 33] was 100. The “Plant response rating, Soybean” value [21, 34] was 100, the “Plant response rating, Rice” value [22] was 0 and the “Goosegrass plant response rating” value [23, 33] was 70. For the same compound, the “Plant response rating, Goosegrass” value [23, 34] was 100, the “Plant response rating, Kochia” value [24, 31] was 90 and the “Plant response rating, Kochia” value [24, 32] was 100. The “Foxtail, Giant plant response rating” value [25, 33] was 50, the “Plant response rating, Foxtail, Giant” value [25, 34] was 90 and the “Plant response rating, Sedge, Umbrella” value [26] was 55. For the same compound, the “Plant response rating, Ragweed” value [27, 31] was 80, the “Plant response rating, Ragweed” value [27, 32] was 100 and the “Ragweed plant response rating” value [28, 33] was 60. For the same compound, the “Plant response rating, Ragweed” value [28, 34] was 70.
